Source: the supplement of paper PMC11208160

Experiment: recombinant barcode read abundance after kanamycin selection (control-corrected) (log10(CPM+1)); higher = more efficient recombination; sequences stand for … in AGTGCAGAGAAAATCGGCCAGTTTTCTCTGCCTGCAGTCCGCATGCCGT…AGATTTATGCAGCGGACTGCCTTTCTCCCAAAGTGATAAACCGGACAGTATCATGGACCGGTTTTCCCGGTAATCCGTATTTGCAAGGTTGGTTTCACT; site = the 11-nt target
Description: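 Pooled E. coli target-specificity screen for the IS621 bridge recombinase. Each library plasmid pairs an 11-nt target (CT core) with a bridge RNA whose target-binding loop (9-nt LTG + 4-nt RTG) is reprogrammed; the rest of the 177-nt WT IS621 bridge RNA scaffold is fixed. The plasmid is co-electroporated with a WT donor plasmid; recombinase is induced with 0.1 mM IPTG and recombinants are selected on kanamycin. Recombinant barcodes are sequenced, converted to CPM, averaged over two biological replicates and corrected by the unselected control CPM. Molecule = full bridge RNA written as DNA: LTG = specificity nt 1-9, RTG = reverse complement of specificity nt 8-11, in the WT scaffold.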
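Note: IS621 recombinase and bridge RNA in Escherichia coli cells.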

Going from “CGGCTACCTTGGGTTCTAACCTGTTGCCT (site CGGCTACCTAG)” to “GATAGTTCTTGGGTTCTAACCTGTTGCCT (site GATAGTACTAG)”, the “recombinant barcode read abundance (log10)” value falls from 1.96 to 0.0904.

Compared with “CACACGTCTTGGGTTCTAACCTGTTGCCT (site CACACGTCTAG)”, “ACGCGCCCTTGGGTTCTAACCTGTTGCAC (site CCGCGCCCTAT)” is lower in “recombinant barcode read abundance (log10)” value: 1.24 for the first, 0.0707 for the second.

Going from “TCCAATCCTTGGGTTCTAACCTGTTGCAG (site TCCAAGCCTCT)” to “GTGAACCCTTGGGTTCTAACCTGTTGCAA (site GTGAACCCTTT)”, the “recombinant barcode read abundance (log10)” value rises from 0.167 to 1.66.

“TGTCGCACTTGGGTTCTAACCTGTTGCAG (site TGTAGCACTGT)” and “ACACCCTCTTGGGTTCTAACCTGTTGCAG (site GGTATAACTTG)” are within 0.2 log units of each other in “recombinant barcode read abundance (log10)” value: 0.123 for the first, 0.271 for the second.

First: TGGCCCTCTTGGGTTCTAACCTGTTGCTA (site TGGCCCTCTAA)
Second: GTAGCGACTTGGGTTCTAACCTGTTGCCT (site GTAGCGACTAG)
The “recombinant barcode read abundance (log10)” value of the first is lower: 1.1 for the first, 1.43 for the second.

Going from “GAGTCGTCTTGGGTTCTAACCTGTTGCCT (site GAGTCGTCTAG)” to “TAGACTCCTTGGGTTCTAACCTGTTGCCA (site ACTTGAGCTAT)”, the “recombinant barcode read abundance (log10)” value falls from 1.78 to 0.336.

Compared with “CTCGGTGCTTGGGTTCTAACCTGTTGCCT (site CTCGGTGCTAG)”, “TAGCCTTCTTGGGTTCTAACCTGTTGCCT (site TTGCCTTCTAG)” is lower in “recombinant barcode read abundance (log10)” value: 1.15 for the first, 0.0659 for the second.

First: TTACCGACTTGGGTTCTAACCTGTTGCCT (site TTACCAACTAG)
Second: TCCGAAACTTGGGTTCTAACCTGTTGCAT (site TCTGAAACTAG)
The “recombinant barcode read abundance (log10)” value of the first is higher: 1.23 for the first, 0.0197 for the second.

Going from “TGTGTCCCTTGGGTTCTAACCTGTTGCCT (site TGTGTCCCTAG)” to “CGTTTCCCTTGGGTTCTAACCTGTTGCGT (site CGTTTCCCTCT)”, the “recombinant barcode read abundance (log10)” value falls from 1.14 to 0.0161.

Going from “CTCCAATCTTGGGTTCTAACCTGTTGCCT (site CTCCTATCTAG)” to “TGGGGTCCTTGGGTTCTAACCTGTTGCCT (site TGGGGTCCTAG)”, the “recombinant barcode read abundance (log10)” value rises from 0.113 to 2.33.

Going from “AGCTGGGCTTGGGTTCTAACCTGTTGCGG (site AGCTGGGCTCC)” to “TAGCCTTCTTGGGTTCTAACCTGTTGCCT (site TAGCCTTCTAG)”, the “recombinant barcode read abundance (log10)” value falls from 1.6 to 0.572.

First: ACTTGTACTTGGGTTCTAACCTGTTGCAT (site ACTTGGACTAT)
Second: TGGGTCCCTTGGGTTCTAACCTGTTGCCT (site TGGGTCCCTAG)
The “recombinant barcode read abundance (log10)” value of the first is lower: 0.0152 for the first, 3 for the second.

Going from “AGAACTACTTGGGTTCTAACCTGTTGCCT (site AGGACTACTAG)” to “CAAGTTGCTTGGGTTCTAACCTGTTGCCT (site CAAGTTGCTAG)”, the “recombinant barcode read abundance (log10)” value rises from 0.162 to 1.43.

“TGTTGGACTTGGGTTCTAACCTGTTGCTT (site TGTTGGACTAA)” and “CGATAGCCTTGGGTTCTAACCTGTTGCCT (site AGATAGCCTAG)” are within 0.2 log units of each other in “recombinant barcode read abundance (log10)” value: 0.16 for the first, 0.024 for the second.

“ACGGGCTCTTGGGTTCTAACCTGTTGCTT (site AGGGGCTCTCA)” and “TAGCTCCCTTGGGTTCTAACCTGTTGCCT (site TAGCTCCCTGG)” are within 0.2 log units of each other in “recombinant barcode read abundance (log10)” value: 0.032 for the first, 0.105 for the second.

Going from “TCAGGGACTTGGGTTCTAACCTGTTGCAG (site TCGGGGACTCG)” to “AGACAGTCTTGGGTTCTAACCTGTTGCCA (site GACTGAGCTCC)”, the “recombinant barcode read abundance (log10)” value falls from 0.375 to 0.0895.

“GTAGTCCCTTGGGTTCTAACCTGTTGCCT (site GAAGTCTCTAG)” and “TCAGAATCTTGGGTTCTAACCTGTTGCCT (site TCAGCATCTAG)” are within 0.2 log units of each other in “recombinant barcode read abundance (log10)” value: 0.118 for the first, 0 for the second.

Going from “TCACGTCCTTGGGTTCTAACCTGTTGCGT (site TCACGTCCTAG)” to “CCGTAGCCTTGGGTTCTAACCTGTTGCCT (site CCGTAGCCTAG)”, the “recombinant barcode read abundance (log10)” value rises from 0.0596 to 1.03.

Compared with “GACGGAGCTTGGGTTCTAACCTGTTGCTG (site GACGGGGCTCT)”, “ACTGATCCTTGGGTTCTAACCTGTTGCAT (site TTCTTAACTCC)” is lower in “recombinant barcode read abundance (log10)” value: 0.224 for the first, 0.00751 for the second.

First: AGATTATCTTGGGTTCTAACCTGTTGCCT (site AGAATATCTAG)
Second: TAGCCCTCTTGGGTTCTAACCTGTTGCCG (site TAGCCCTCTCG)
The “recombinant barcode read abundance (log10)” value of the first is lower: 0.21 for the first, 1.82 for the second.

“GTTAGCCCTTGGGTTCTAACCTGTTGCAT (site TCACAGACTCG)” and “AGCGTTGCTTGGGTTCTAACCTGTTGCCT (site AGCCTTGCTAG)” are within 0.2 log units of each other in “recombinant barcode read abundance (log10)” value: 0.0525 for the first, 0.142 for the second.

“GGTGCTCCTTGGGTTCTAACCTGTTGCAG (site GGTGCTCCTTT)” and “GATTCTACTTGGGTTCTAACCTGTTGCTT (site GATTCTACTAA)” are within 0.2 log units of each other in “recombinant barcode read abundance (log10)” value: 0.0255 for the first, 0.0583 for the second.

“GTGGTATCTTGGGTTCTAACCTGTTGCCT (site GTGGTAACTAG)” and “ATCCTTACTTGGGTTCTAACCTGTTGCCT (site AACCTTACTAG)” are within 0.2 log units of each other in “recombinant barcode read abundance (log10)” value: 0.268 for the first, 0.247 for the second.

“CGATTAACTTGGGTTCTAACCTGTTGCCT (site CGATTAACTAG)” and “GCTCAGTCTTGGGTTCTAACCTGTTGCCT (site GCTCAGACTAG)” are within 0.2 log units of each other in “recombinant barcode read abundance (log10)” value: 0.139 for the first, 0.00917 for the second.

Going from “GTATCACCTTGGGTTCTAACCTGTTGCCT (site GTATCATCTAG)” to “GGAACTACTTGGGTTCTAACCTGTTGCAC (site GGAACTACTGT)”, the “recombinant barcode read abundance (log10)” value rises from 0.0641 to 0.838.

Going from “TAGCATACTTGGGTTCTAACCTGTTGCCA (site TAGCATACTAG)” to “GTAGTACCTTGGGTTCTAACCTGTTGCCT (site GTAGTACCTAG)”, the “recombinant barcode read abundance (log10)” value rises from 0.445 to 1.73.

“TCGCCTACTTGGGTTCTAACCTGTTGCCT (site TCGCCTACTAG)” and “TCGAAGACTTGGGTTCTAACCTGTTGCCA (site TCGAAGACTTG)” are within 0.2 log units of each other in “recombinant barcode read abundance (log10)” value: 0.049 for the first, 0.177 for the second.

Going from “CCTACAGCTTGGGTTCTAACCTGTTGCCT (site CCTACAACTAG)” to “AATTGTCCTTGGGTTCTAACCTGTTGCGT (site AATTGTCCTAA)”, the “recombinant barcode read abundance (log10)” value falls from 0.363 to 0.0377.

Compared with “ACGGTCACTTGGGTTCTAACCTGTTGCCG (site AGGGGCACTCG)”, “CCGTGTCCTTGGGTTCTAACCTGTTGCCG (site CCGTGTCCTCG)” is higher in “recombinant barcode read abundance (log10)” value: 0.533 for the first, 1.32 for the second.

First: CAAAGTGCTTGGGTTCTAACCTGTTGCCT (site CAAAGTGCTAG)
Second: CCGATCCCTTGGGTTCTAACCTGTTGCCT (site CTGATCCCTAG)
The “recombinant barcode read abundance (log10)” value of the first is higher: 0.517 for the first, 0.107 for the second.

Going from “TCGCCTTCTTGGGTTCTAACCTGTTGCCT (site TCGCCTTCTAG)” to “AATAAGTCTTGGGTTCTAACCTGTTGCCT (site AGTAAGTCTAG)”, the “recombinant barcode read abundance (log10)” value rises from 0.364 to 0.566.

First: ATCAAGCCTTGGGTTCTAACCTGTTGCAG (site ATCAAGCCTCT)
Second: TAGTACGCTTGGGTTCTAACCTGTTGCTT (site ACACGGCCTCG)
The “recombinant barcode read abundance (log10)” value of the first is higher: 1.83 for the first, 0.331 for the second.

Compared with “GGAGATGCTTGGGTTCTAACCTGTTGCCT (site GGAGATGCTAG)”, “ACCTTAGCTTGGGTTCTAACCTGTTGCTT (site ACCTTAGCTAA)” is lower in “recombinant barcode read abundance (log10)” value: 1.74 for the first, 0.297 for the second.
